Data on three compounds can be found in US20120029167A1, “AUTO MAGNETIC METAL SALEN COMPLEX COMPOUND” (Yoshihiro Ishikawa, priority 2008, published 2012).

A value given as a limit tells only on which side of the number the result lay.

Data set [1] in a line: 37° C. (310K) magnetic field-magnetization curve using MPMS7 (Quantum Design). The data set is classed as physicochemical. The note with it: for magnetic field at which magnetization is greater in comparison to the Fe-salen / magnetic properties from magnetic field-magnetization curve: 37° C. (310K); for magnetization compared among Fe-, Mn-, Cr-, Co-salen: magnetic field 10000 Oe (1 T) or more. The protocol: As a result of measuring the 37° C.
The summary of the results of the 37° C. (310K) magnetic field-magnetization curve of the Fe-salen complex, the Mn-salen complex, the Cr-salen complex, and the Co-salen complex is shown in FIG. 4.
In comparison to the Fe-salen, the Co-salen yields greater magnetization at a magnetic field of 10000 Oe (1 T (tesla)) or more. In comparison to the Fe-salen, the Mn-salen yields greater magnetization at a magnetic field of 30000 Oe (3 T (tesla)) or more.
Nevertheless, if the magnetic field is 10000 Oe (1 T (tesla)) or more, the magnetization of the Co-salen and Mn-salen complex is the greatest and is optimal for a magnetic field drug delivery system which uses a superconducting magnet.

The subject of another data set is rat L6 cells. Kind of data set: Rat L6 cell culture in square flask with magnet, number of cells after 48 hours. The data set is classed as cell-based. The note with it: powder sprinkled on culture medium, L6 cells confluent at 30%, bar magnet. The protocol: The respective metal salen complex powders of the Fe-salen complex, the Mn-salen complex, the Cr-salen complex, and the Co-salen complex obtained with the foregoing method were sprinkled on a culture medium in an amount that where such powder can be visually confirmed to be drawn to the magnet in a state where the rat L6 cells are confluent at 30%, and a photograph of the state of the culture medium after 48 hours was taken.
Subsequently, a photograph was taken from one end to the other end of the bottom face of the square flask after 48 hours, and the results of calculating the number of cells are shown in FIG. 6. […]
Shown is a state where the bar magnet was caused to come in contact with a square flask as the culture medium of the rat L6 cells. Subsequently, a photograph was taken from one end to the other end of the bottom face of the square flask after 48 hours, and the number of cells was calculated. […]
Shown is a state where the bar magnet was caused to come in contact with a square flask as the culture medium of the rat L6 cells. Subsequently, a photograph was taken from one end to the other end of the bottom face of the square flask after 48 hours, and the number of cells was calculated.

Regarding `[Co+2].[O-]c1ccccc1C=NCCN=Cc1ccccc1[O-]` [Co-salen complex], in data set [1], the “magnetic field at which magnetization is greater in comparison to the Fe-salen” value is ≥ 10000 Oe; the “magnetic properties from magnetic field-magnetization curve” value (“magnetic properties” below) is “paramagnetic properties were observed”; the “magnetization compared among Fe-, Mn-, Cr-, Co-salen” value is reported as “the greatest”.
In the case of `[Cr+2].[O-]c1ccccc1C=NCCN=Cc1ccccc1[O-]` [Cr-salen complex], in data set [1], the “magnetic properties” value is given as “paramagnetic properties were observed”.
As to `Oc1ccccc1C=NCCN=Cc1ccccc1O.[Mn]` [Mn-salen complex], in data set [1], the “magnetic field at which magnetization is greater in comparison to the Fe-salen” value is reported as ≥ 30000 Oe; the “magnetic properties” value is on record as “paramagnetic properties were observed”; the “magnetization compared among Fe-, Mn-, Cr-, Co-salen” value is “the greatest”. The “number of cells proximal from the magnet versus distal” value in the data set with rat L6 cells is “number of cells is extremely lower than the distal”.
